Assay results from paper PMC3563091 (Bioorganic & medicinal chemistry letters, 2012).
pIC50: −log10 of the molar value.

Biological target: CMG2 (Capillary Morphogenesis Gene protein 2) (Homo sapiens, UniProt P58335, R40C)
Type: binding

Sequence of CMG2 (Capillary Morphogenesis Gene protein 2) (P58335 34-489 R40C limits assumed): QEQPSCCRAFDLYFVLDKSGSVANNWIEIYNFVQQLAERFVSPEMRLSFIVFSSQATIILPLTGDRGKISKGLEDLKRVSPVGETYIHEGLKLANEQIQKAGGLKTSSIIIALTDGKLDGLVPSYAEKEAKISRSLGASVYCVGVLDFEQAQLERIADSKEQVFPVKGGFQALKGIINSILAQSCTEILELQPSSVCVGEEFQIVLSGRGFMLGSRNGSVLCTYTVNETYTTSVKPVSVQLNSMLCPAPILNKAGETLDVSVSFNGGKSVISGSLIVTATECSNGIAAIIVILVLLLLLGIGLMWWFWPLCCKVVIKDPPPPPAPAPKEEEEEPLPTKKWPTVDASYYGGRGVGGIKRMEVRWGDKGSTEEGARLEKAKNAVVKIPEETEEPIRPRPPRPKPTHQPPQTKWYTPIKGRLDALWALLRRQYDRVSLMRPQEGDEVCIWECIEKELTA

## 7-O-methyl neolambertellin [compound 1]
  pIC50: 6.30
